Test results: patent publication US9073821B2, “Hydroxamic acid derivative” (priority 2010, dated 2015)

The compounds below were run against Pseudomonas aeruginosa LpxC enzyme (Pseudomonas aeruginosa (strain ATCC 15692 / DSM 22644 / CIP 104116 / JCM 14847 / LMG 12228 / 1C / PRS 101 / PAO1), UniProt P47205) (assay: biochemical). Details: inhibitory activity on Pseudomonas aeruginosa LpxC enzyme, class symbols A/B/C; read-out: Enzyme inhibitory activity.
Format: biochemical
Procedure: Test 1: Evaluation of the Inhibitory Activity on Pseudomonas aeruginosa LpxC Enzyme
An inhibition curve was constructed for each test compound by performing the aforementioned reaction at varying concentrations of the test compound. From this inhibition curve, the concentration of the test compound at which the formation of the reaction product was suppressed by 50% was determined as the IC50 of the test compound, which was an index for the inhibitory activity on Pseudomonas aeruginosa LpxC enzyme.

| IC50 | Structure (SMILES) |
| --- | --- |
| < 10 nM | CNC(=O)C(C(=O)NO)N(C)C(=O)c1ccc(-c2ccc(C)c(F)c2)cc1 (stereo not drawn) [Compound 28, 2-{[(3′-fluoro-4′-methylbiphenyl-4-yl)carbonyl](methyl)amino}-N-hydroxy-N′-methylpropanediamide] |
| < 10 nM | CNC(=O)C(C(=O)NO)N(C)C(=O)c1ccc(-c2cccc(C)c2)cc1 (stereo not drawn) [Compound 29, N-hydroxy-N′-methyl-2-{methyl[(3′-methylbiphenyl-4-yl)carbonyl]amino}propanediamide] |
| < 10 nM | CCNc1ccc(-c2ccc(C(=O)N(C)C(C(=O)NC)C(=O)NO)cc2)cc1 (stereo not drawn) [Compound 32, 2-[{[4′-(ethylamino)biphenyl-4-yl]carbonyl}(methyl)amino]-N-hydroxy-N′-methylpropanediamide] |
| < 10 nM | CNC(=O)C(C(=O)NO)N(C)C(=O)c1ccc(-c2ccc3ccn(C)c3c2)cc1 (stereo not drawn) [Compound 36, N-hydroxy-N′-methyl-2-{methyl[4-(1-methyl-1H-indol-6-yl)benzoyl]amino}propanediamide] |
| 10 to 100 nM | CNC(=O)C(C(=O)NO)N(C)C(=O)c1ccc(-c2ccc3c(c2)CCN3)cc1 (stereo not drawn) [Compound 39, 2-{[4-(2,3-dihydro-1H-indol-5-yl)benzoyl](methyl)amino}-N-hydroxy-N′-methylpropanediamide] |
| < 10 nM | CNC(=O)C(C(=O)NO)N(C)C(=O)c1ccc(-c2ccc(SC)cc2)cc1 (stereo not drawn) [Compound 42, N-hydroxy-N′-methyl-2-(methyl {[4′-(methylsulfanyl)biphenyl-4-yl]carbonyl}amino)propanediamide] |
| 10 to 100 nM | CNC(=O)C(C(=O)NO)N(C)C(=O)c1ccc(-c2ccc3c(c2)cc(CN2CCOCC2)n3C)cc1 (stereo not drawn) [Compound 46, N-hydroxy-N′-methyl-2-(methyl {4-[1-methyl-2-(morpholin-4-ylmethyl)-1H-indol-5-yl]benzoyl}amino)propanediamide] |
| 10 to 100 nM | CNC(=O)C(C(=O)NO)N(C)C(=O)c1ccc(-c2cccc(O)c2)cc1 (stereo not drawn) [Compound 48, N-hydroxy-2-{[(3′-hydroxybiphenyl-4-yl)carbonyl](methyl)amino}-N′-methylpropanediamide] |
| 10 to 100 nM | CNC(=O)C(C(=O)NO)N(C)C(=O)c1ccc(-c2ccc(O)cc2)cc1 (stereo not drawn) [Compound 49, N-hydroxy-2-{[(4′-hydroxybiphenyl-4-yl)carbonyl](methyl)amino}-N′-methylpropanediamide] |
| < 10 nM | CNC(=O)C(C(=O)NO)N(C)C(=O)c1ccc(-c2ccc(OC(F)F)cc2)cc1 (stereo not drawn) [Compound 51, 2-[{[4′-(difluoromethoxy)biphenyl-4-yl]carbonyl}(methyl)amino]-N-hydroxy-N′-methylpropanediamide] |
| 10 to 100 nM | CNC(=O)C(C(=O)NO)N(C)C(=O)c1ccc(-c2ccc(N3CCOCC3)cc2)cc1 (stereo not drawn) [Compound 53, N-hydroxy-N′-methyl-2-(methyl {[4′-(morpholin-4-yl)biphenyl-4-yl]carbonyl}amino)propanediamide] |

Further lines, the compound ahead of its results:

| Structure (SMILES) | IC50 |
| --- | --- |
| CNC(=O)C(C(=O)NO)N(C)C(=O)c1ccc(-c2ccccc2)cc1O (stereo not drawn) [Compound 24, N-hydroxy-2-{[(3-hydroxybiphenyl-4-yl)carbonyl](methyl)amino}-N′-methylpropanediamide] | > 100 nM |
| CCCCCCCCOc1ccc(C(=O)N(C)C(C(=O)NC)C(=O)NO)cc1 (stereo not drawn) [Compound 25, N-hydroxy-N′-methyl-2-{methyl[4-(octyloxy)benzoyl]amino}propanediamide] | 10 to 100 nM |
| CNC(=O)C(C(=O)NO)N(C)C(=O)c1ccc(-c2ccc3c(ccn3CCCCO)c2)cc1 (stereo not drawn) [Compound 26, N-hydroxy-2-[{4-[1-(4-hydroxybutyl)-1H-indol-5-yl]benzoyl}(methyl)amino]-N′-methylpropanediamide] | < 10 nM |
| CNC(=O)C(C(=O)NO)N(C)C(=O)c1ccc(-c2ccccc2)cc1F (stereo not drawn) [Compound 27, 2-{[(3-fluorobiphenyl-4-yl)carbonyl](methyl)amino}-N-hydroxy-N′-methylpropanediamide] | 10 to 100 nM |
| CNC(=O)C(C(=O)NO)N(C)C(=O)c1ccc(C2CCCCC2)cc1 (stereo not drawn) [Compound 30, 2-[(4-cyclohexylbenzoyl)(methyl)amino]-N-hydroxy-N′-methylpropanediamide] | 10 to 100 nM |
| CNC(=O)C(C(=O)NO)N(C)C(=O)c1ccc(-c2ccc3c(ccn3CCO)c2)cc1 (stereo not drawn) [Compound 31, N-hydroxy-2-[{4-[1-(2-hydroxyethyl)-1H-indol-5-yl]benzoyl}(methyl)amino]-N′-methylpropanediamide] | < 10 nM |
| CNC(=O)C(C(=O)NO)N(C)C(=O)c1ccc(-c2ccc3c(c2)cc(COCOC)n3C)cc1 (stereo not drawn) [Compound 33, N-hydroxy-2-[(4-{2-[(methoxymethoxy)methyl]-1-methyl-1H-indol-5-yl}benzoyl)(methyl)amino]-N′-methylpropanediamide] | < 10 nM |
| CNC(=O)C(C(=O)NO)N(C)C(=O)c1ccc(-c2ccc([C@@H](C)NC(=O)OC(C)(C)C)cc2)cc1 (stereo partly drawn) [Compound 34, tert-butyl[(1R)-1-(4′-{[1-(hydroxyamino)-3-(methylamino)-1,3-dioxopropan-2-yl](methyl)carbamoyl}biphenyl-4-yl)ethyl]carbamate] | 10 to 100 nM |
| CCCCOc1ccc(C(=O)N(C)C(C(=O)NC)C(=O)NO)cc1 (stereo not drawn) [Compound 35, 2-[(4-butoxybenzoyl)(methyl)amino]-N-hydroxy-N′-methylpropanediamide] | 10 to 100 nM |
| CCCCc1ccc(C(=O)N(C)C(C(=O)NC)C(=O)NO)cc1 (stereo not drawn) [Compound 37, 2-[(4-butylbenzoyl)(methyl)amino]-N-hydroxy-N′-methylpropanediamide] | 10 to 100 nM |
| CNC(=O)C(C(=O)NO)N(C)C(=O)c1ccc(-c2ccc(NC)c(F)c2)cc1 (stereo not drawn) [Compound 38, 2-[{[3′-fluoro-4′-(methylamino)biphenyl-4-yl]carbonyl}(methyl)amino]-N-hydroxy-N′-methylpropanediamide] | < 10 nM |
| CNC(=O)C(C(=O)NO)N(C)C(=O)c1ccc(-c2ccc3c(c2)cc(CO)n3C)cc1 (stereo not drawn) [Compound 41, N-hydroxy-2-[{4-[2-(hydroxymethyl)-1-methyl-1H-indol-5-yl]benzoyl}(methyl)amino]-N′-methylpropanediamide] | < 10 nM |
| CNC(=O)C(C(=O)NO)N(C)C(=O)c1ccc(-c2ccc(N(C)C(=O)OC(C)(C)C)c(C)c2)cc1 (stereo not drawn) [Compound 44, tert-butyl(4′-{[1-(hydroxyamino)-3-(methylamino)-1,3-dioxopropan-2-yl](methyl)carbamoyl}-3-methylbiphenyl-4-yl)methylcarbamate] | 10 to 100 nM |
| CNC(=O)C(C(=O)NO)N(C)C(=O)c1ccc(-c2ccc(NC)c(C)c2)cc1 (stereo not drawn) [Compound 45, N-hydroxy-N′-methyl-2-(methyl {[3′-methyl-4′-(methylamino)biphenyl-4-yl]carbonyl}amino)propanediamide] | < 10 nM |
| CNC(=O)C(C(=O)NO)N(C)C(=O)c1ccc(OC(F)(F)C(F)F)cc1 (stereo not drawn) [Compound 47, N-hydroxy-N′-methyl-2-{methyl[4-(1,1,2,2-tetrafluoroethoxy)benzoyl]amino}propanediamide] | > 100 nM |
| CNC(=O)C(C(=O)NO)N(C)C(=O)c1ccc(-c2ccc(NC)c(OC)c2)cc1 (stereo not drawn) [Compound 50, N-hydroxy-2-[{[3′-methoxy-4′-(methylamino)biphenyl-4-yl]carbonyl}(methyl)amino]-N′-methylpropanediamide] | 10 to 100 nM |
| CNC(=O)C(C(=O)NO)N(C)C(=O)c1ccc(-c2ccc(N(C)C)c(F)c2)cc1 (stereo not drawn) [Compound 54, 2-[{[4′-(dimethylamino)-3′-fluorobiphenyl-4-yl]carbonyl}(methyl)amino]-N-hydroxy-N′-methylpropanediamide] | 10 to 100 nM |
| CNC(=O)C(C(=O)NO)N(C)C(=O)c1ccc(-c2ccc(OC)c(OC)c2)cc1 (stereo not drawn) [Compound 55, 2-{[(3′,4′-dimethoxybiphenyl-4-yl)carbonyl](methyl)amino}-N-hydroxy-N′-methylpropanediamide] | 10 to 100 nM |
| CNC(=O)C(C(=O)NO)N(C)C(=O)c1ccc(-c2ccc3c(c2)cc(C)n3C)cc1 (stereo not drawn) [Compound 57, 2-{[4-(1,2-dimethyl-1H-indol-5-yl)benzoyl](methyl)amino}-N-hydroxy-N′-methylpropanediamide] | < 10 nM |
| CNC(=O)C(C(=O)NO)N(C)C(=O)c1ccc(-c2ccccc2F)cc1 (stereo not drawn) [Compound 59, 2-{[(2′-fluorobiphenyl-4-yl)carbonyl](methyl)amino}-N-hydroxy-N′-methylpropanediamide] | < 10 nM |
| CNC(=O)C(C(=O)NO)N(C)C(=O)c1ccc(-c2ccc(Cc3nn[nH]n3)cc2)cc1 (stereo not drawn) [Compound 60, N-hydroxy-N′-methyl-2-(methyl {[4′-(2H-tetrazol-5-ylmethyl)biphenyl-4-yl]carbonyl}amino)propanediamide] | > 100 nM |
| CN(C(=O)c1ccc(-c2ccccc2)cc1)C(C(=O)NO)C(=O)NCc1ccccc1 (stereo not drawn) [Compound 62, N-benzyl-2-[(biphenyl-4-ylcarbonyl)(methyl)amino]-N′-hydroxypropanediamide] | > 100 nM |
| CNC(=O)C(C(=O)NO)N(C)C(=O)c1ccc(/C=C/c2ccccc2)cc1 (stereo not drawn) [Compound 63, N-hydroxy-N′-methyl-2-(methyl {4-[(E)-2-phenylethenyl]benzoyl}amino)propanediamide] | 10 to 100 nM |
| CNC(=O)C(C(=O)NO)N(C)C(=O)c1ccc(-c2ccc(OCCCN(C)CCOC)cc2)cc1 (stereo not drawn) [Compound 64, N-hydroxy-2-{[(4′-{3-[(2-methoxyethyl)(methyl)amino]propoxy}biphenyl-4-yl)carbonyl](methyl)amino}-N′-methylpropanediamide] | 10 to 100 nM |
| CNC(=O)C(C(=O)NO)N(C)C(=O)c1ccc(-c2ccc(NCc3cccnc3)cc2)cc1 (stereo not drawn) [Compound 65, N-hydroxy-N′-methyl-2-[methyl({4′-[(pyridin-3-ylmethyl)amino]biphenyl-4-yl}carbonyl)amino]propanediamide] | < 10 nM |
